Source: PMC8389655, “Au2phen and Auoxo6, Two Dinuclear Oxo-Bridged Gold(III) Compounds, Induce Apoptotic Signaling in Human Ovarian A2780 Cancer Cells” (Biomedicines, 2021)

Experiments:
Type in all cases: cell-based, human
[1] = system: lactate production of A2780 cells; experiment: Lactate production assay (K-LATE kit) in culture medium; conditions: A2780, 24 h treatment at 72 h IC50 dose, vs controls
Description: The lactate amount was measured in cell culture media after 24 h of treatment with K-LATE kit (Megazyme, Bray, Ireland) according to the data sheet provided by the manufacturer. Lactate content was normalized on the protein content of the same sample.

[2] = system: complex I-driven mitochondrial respiration; experiment: Respiratory control ratio, complex I-driven respiration in permeabilized cells; conditions: permeabilized A2780, 24 h treatment; control about 3.1
Description: The analysis of the oxygen consumption rate (OCR) was performed using a Clark-type O2 electrode inserted in a thermostated airtight chamber (Oxygraph Plus System, Hansatech Instruments, King’s Lynn, Norfolk, UK). Briefly, control and treated cells (12 and 24 h) were trypsinized, washed with PBS, and suspended in culture medium to measure the steady state OCR for 10 min. The OCR values, expressed as nmol of consumed O2/mL/min, were normalized to the cellular protein content. To evaluate the response of complex I, complex II/III, and ATP-synthase-driven OCRs in the presence or absence of gold-treatment, we used the protocol described by Baracca et al.. Cells were trypsinized, washed, and resuspended in buffer containing sucrose, TRIS-HCl, MgSO4, EDTA, and KH2PO4. Cell suspension was treated with digitonin to allow cell membrane permeabilization. To stimulate complex I, 250 mM glutamate/malate was added, whereas to stimulate complex II, 250 mM succinate was added (state 2 respiration). Then, to induce ATP-synthase-driven mitochondrial respiration, 10 mM ADP was added (state 3 respiration). To estimate the mitochondrial respiratory capacity, defined as the respiratory control ratio (RCR), state 3/state 2 ratios were calculated for control and treated cells.

A2780 cells = experiment: Annexin V/propidium iodide flow cytometry (apoptosis); conditions: A2780, 72 h exposure at IC50 dose
Description: The evaluation of cell death was carried out using the TACS annexin V/propidium iodide staining kit (Trevigen, Gaithersburg, MD, USA) according to the manufacturer’s instructions. […] After 72 h, controls and treated cells were trypsinized, washed with PBS buffer, and suspended in the staining solution for 15 min at room temperature in the dark. Cells were then washed and immediately analyzed by FACSCantoII flow cytometer (BD Biosciences, New Jersey, USA). Cells were gated and plotted on dot plots showing the distribution of annexin V-positive cells (early apoptotic cells) and annexin V/propidium iodide-positive cells (late apoptotic cells).

SMILES | increase of lactate level in medium [1] | respiratory control ratio (RCR), complex I-driven [2] | increase of annexin V fluorescence intensity vs untreated control cells (A2780 cells) [fold]
Cc1ccc2ccc3ccc(C)[n+]4c3c2[n+]1[Au-]41[O][Au-]2([O]1)[n+]1c(C)ccc3ccc4ccc(C)[n+]2c4c31.F[P-](F)(F)(F)(F)F.F[P-](F)(F)(F)(F)F [Au2phen, ((2,9-dimethyl-1,10-phenanthroline)2Au2(µ-O)2)(PF6)2] | about 20% | about 1.8 | 6
CCOC(=O)CN(C)C1=[S+][Au-]([Br])([Br])[S]1 [AuL12, dibromo(ethylsarcosinedithiocarbamate)gold(III), reference compound] | ~29% | 2.3 | 5
Cc1cccc2[n+]1[Au-]1([O][Au-]3([O]1)[n+]1c(C)cccc1-c1cccc(C)[n+]13)[n+]1c(C)cccc1-2.F[P-](F)(F)(F)(F)F.F[P-](F)(F)(F)(F)F [Auoxo6, ((6,6′-dimethyl-2,2′-bipyridine)2Au2(µ-O)2)(PF6)2] | ~25% | 2.1 | 10
